These are literature values, as cited in US9072786B2, “Method of manufacturing an implantable device” (Endo Pharmaceuticals Solutions Inc., priority 2008, dated 2015).

For data set [1] the following is noted: hydrophilic-lipophilic balance of the surfactant.
The conditions of data set [2]: concentration of surfactant at which micelles form.

Take `CCCCCCCC/C=C\CCCCCCCC(=O)OCCOCC(OCCO)C1OCC(OCCO)C1OCCO` (stereo not shown) [Tween 80]: in data set [1], the HLB is 15. Moreover, the “CMC” value in data set [2] is reported as 0.012 mM.
As to Sucrose monolaurate, the HLB in data set [1] is approximately 8. In addition, in data set [2], the “CMC” value was 0.2 mM.
